Experimental data published in patent EP4763839A1 (Pamplona Therapeutics (Shenzhen) Co., Ltd., priority 2023, dated 2025).
Counter-ions that a name gives are not always drawn.

Biological target: T1, IRAK4 (Homo sapiens, UniProt Q9NWZ3)
T1 sequence (Q9NWZ3 1-460): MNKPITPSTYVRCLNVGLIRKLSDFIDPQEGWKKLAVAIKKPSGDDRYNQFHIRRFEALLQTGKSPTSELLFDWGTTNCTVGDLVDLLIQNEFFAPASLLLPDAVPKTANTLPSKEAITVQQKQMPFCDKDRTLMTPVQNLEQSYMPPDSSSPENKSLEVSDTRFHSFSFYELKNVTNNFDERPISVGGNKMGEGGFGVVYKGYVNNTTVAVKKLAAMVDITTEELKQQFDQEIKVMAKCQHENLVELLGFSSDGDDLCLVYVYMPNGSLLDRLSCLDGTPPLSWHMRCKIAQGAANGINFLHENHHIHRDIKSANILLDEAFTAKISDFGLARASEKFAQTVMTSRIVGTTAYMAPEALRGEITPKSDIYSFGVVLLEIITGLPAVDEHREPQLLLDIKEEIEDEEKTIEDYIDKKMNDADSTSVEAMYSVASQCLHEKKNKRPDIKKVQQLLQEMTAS
Experiment: Degradation of IRAK4 in THP1 cells, Western blot
Type: cell-based
Set-up: Degradation of IRAK4 in THP1 by compound; host or cells: THP-1
Details: THP-1 cells, 24 hours of incubation; for DC50: IRAK4 protein by Western blot, read-out: DC50; for Dmax: maximum degradation rate, read-out: Dmax
Method: After 24 hours of incubation, the cells were collected into 1.5 mL centrifuge tubes and centrifuged at 1,000 rpm for 5 minutes. […] The supernatants were collected, and the IRAK4 protein levels were respectively detected by Western blot (WB). The total protein concentration in the cell lysate supernatant was determined using a BCA protein quantification kit (NCM). Based on the total protein concentration detected by BCA, the samples were adjusted to 2 μg/μL using cell lysis buffer and 5×SDS-PAGE protein loading buffer (Beyotime), heated at 95°C for 5 minutes in a metal bath, and then placed on ice for an ice bath for 5 minutes before being used as the loading samples for Western blot analysis. Protein electrophoresis was performed using a 10% SDS-PAGE gel with a loading volume of 20 μL (total protein 40 μg) and Tris-SDS electrophoresis at a constant voltage of 80 V. After electrophoresis, the proteins on the gel were transferred to a 0.2 μm PVDF membrane (Immobilon) using a semi-dry transfer method at 0.5 A and 20 V for 60 minutes. After transfer, the membrane was placed in 5% skimmed milk and incubated at rt for 2 hours. After blocking, the PVDF membrane was incubated with primary antibody against IRAK4 (Abcam) at 4°C overnight. […] The color development and protein band imaging were performed using a chemiluminescence imaging system ([…] Technology Co., Ltd.). The protein bands were analyzed for grayscale values using Image J analysis software. The corrected grayscale values for each sample were calculated and then compared with those of the control group treated with DMSO alone to calculate the degradation rate.

| SMILES | DC50 [nM] | Dmax [%] |
| --- | --- | --- |
| Cn1c(=O)n(C2CCC(=O)NC2=O)c2cccc(N3CCC(CN4CCN(c5ccc(-n6cc(NC(=O)c7cccc(-c8ccn[nH]8)n7)c(S(N)(=O)=O)n6)cc5)CC4)CC3)c21 (stereo not shown) [Compound A327, N-(1-(4-(4-((1-(1-(2,6-dioxopiperidin-3-yl)-3-methyl-2-oxo-2,3-dihydro-1H-benzo[d]imidazol-4-yl)piperidin-4-yl)methyl)piperazin-1-yl)phenyl)-3-sulfamoyl-1H-pyrazol-4-yl)-6-(1H-pyrazol-5-yl)picolinamide] | < 100 | > 60 |
| COc1ccc(C(=O)N2CCC(CCN3CCN(c4ccc(-n5cc(NC(=O)c6cccc(-c7ccn[nH]7)n6)c(S(N)(=O)=O)n5)cc4)CC3)C2)cc1N1CCC(=O)NC1=O (stereo not shown) [Compound A328, N-(1-(4-(4-(1-(3-(2,4-dioxotetrahydropyrimidin-1(2H)-yl)-4-methoxybenzoyl)pyrrolidin-3-ethyl)piperazin-1-yl)phenyl)-3-sulfonylamino-1H-pyrazol-4-yl)-6-(1H-pyrazol-5-yl)picolinamide trifluoroacetate] | < 100 | > 60 |
| COc1ccc(C(=O)N2CCC(CN3CCN(c4ccc(-n5cc(NC(=O)c6cccc(-c7ccn[nH]7)n6)c(S(N)(=O)=O)n5)cc4)CC3)C2)cc1N1CCC(=O)NC1=O (stereo not shown) [Compound A329, N-(1-(4-(4-((1-(3-(2,4-dioxotetrahydropyrimidin-1(2H)-yl)-4-methoxybenzoyl)pyrrolidin-3-yl)methyl)piperazin-1-yl)phenyl)-3-sulfamoyl-1H-pyrazol-4-yl)-6-(1H-pyrazol-5-yl)picolinamide trifluoroacetate] | < 100 | > 60 |
| Cn1c(=O)n(C2CCC(=O)NC2=O)c2cccc(NCC3CCC4(CC3)CCN(C(=O)c3ccc(-n5cc(NC(=O)c6cccc(-c7ccn[nH]7)n6)c(S(N)(=O)=O)n5)cc3)CC4)c21 (stereo not shown) [Compound A330] | < 100 | > 60 |
| Cn1c(=O)n(C2CCC(=O)NC2=O)c2cccc(N3CCC(C(=O)N4CCN(Cc5ccc(-n6cc(NC(=O)c7cccc(-c8ccn[nH]8)n7)c(S(N)(=O)=O)n6)cc5)CC4)CC3)c21 (stereo not shown) [Compound A331, N-(1-(4-((4-(1-(1-(2,6-dioxopiperidin-3-yl)-3-methyl-2-oxo-2,3-dihydro-1H-benzo[d]imidazol-4-yl)piperidine-4-carbonyl)piperazin-1-yl)methyl)phenyl)-3-sulfamoyl-1H-pyrazol-4-yl)-6-(1H-pyrazol-5-yl)picolinamide] | < 100 | > 60 |
| Cn1c(=O)n(C2CCC(=O)NC2=O)c2cccc(N3CCN(C(=O)C4CCN(Cc5ccc(-n6cc(NC(=O)c7cccc(-c8ccn[nH]8)n7)c(S(N)(=O)=O)n6)cc5)CC4)CC3)c21 (stereo not shown) [Compound A332, N-(1-(4-((4-(4-(1-(2,6-Dioxopiperidin-3-yl)-3-methyl-2-oxo-2,3-dihydro-1H-benzo[d]imidazol-4-yl)piperazine-1-carbonyl)piperidin-1-yl)methyl)phenyl)-3-sulfamoyl-1H-pyrazol-4-yl)-6-(1H-pyrazol-5-yl)picolinamide] | < 100 | > 60 |
| Cn1c(=O)n(C2CCC(=O)NC2=O)c2cccc(NCCN3CCC4(CCN(C(=O)c5ccc(-n6cc(NC(=O)c7cccc(-c8ccn[nH]8)n7)c(S(N)(=O)=O)n6)cc5)C4)C3)c21 (stereo not shown) [Compound A333] | < 100 | > 60 |
| Cn1c(=O)n(C2CCC(=O)NC2=O)c2cccc(NCCN3CC4(C3)CN(Cc3ccc(-n5cc(NC(=O)c6cccc(-c7ccn[nH]7)n6)c(S(N)(=O)=O)n5)cc3)C4)c21 (stereo not shown) [Compound A334] | < 100 | > 60 |
| Cn1c(=O)n(C2CCC(=O)NC2=O)c2cccc(C#CCOC3CCN(C(=O)c4ccc(-n5cc(NC(=O)c6cccc(-c7ccn[nH]7)n6)c(S(N)(=O)=O)n5)cc4)CC3)c21 (stereo not shown) [Compound A335, N-(1-(4-(4-((3-(1-(2,6-Dioxopiperidin-3-yl)-3-methyl-2-oxo-2,3-dihydro-1H-benzo[d]imidazol-4-yl)prop-2-yn-1-yl)oxy)piperidine-1-carbonyl)phenyl)-3-sulfamoyl-1H-pyrazol-4-yl)-6-(1H-pyrazol-5-yl)picolinamide] | < 100 | > 60 |
| Cn1c(=O)n(C2CCC(=O)NC2=O)c2cccc(C#CCCN3CCN(C(=O)c4ccc(-n5cc(NC(=O)c6cccc(-c7ccn[nH]7)n6)c(S(N)(=O)=O)n5)cc4)CC3)c21 (stereo not shown) [Compound A336] | < 100 | > 60 |
| CN(CCN1CC2CN(c3cccc4c3n(C)c(=O)n4C3CCC(=O)NC3=O)CC2C1)Cc1ccc(-n2cc(NC(=O)c3cccc(-c4ccn[nH]4)n3)c(S(N)(=O)=O)n2)cc1 (stereo not shown) [Compound A337, N-(1-(4-(((2-(5-(1-(2,6-Dioxopiperidin-3-yl)-3-methyl-2-oxo-2,3-dihydro-1H-benzo[d]imidazol-4-yl)hexahydropyrrolo[3,4-c]pyrrol-2(1H)-yl)ethyl)(methyl)amino)methyl)phenyl)-3-sulfamoyl-1H-pyrazol-4-yl)-6-(1H-pyrazol-5-yl)picolinamide] | < 100 | > 60 |
| Cn1c(=O)n(C2CCC(=O)NC2=O)c2cccc(NCCN3CC4CN(Cc5ccc(-n6cc(NC(=O)c7cccc(-c8ccn[nH]8)n7)c(S(N)(=O)=O)n6)cc5)CC4C3)c21 (stereo not shown) [Compound A338] | < 100 | > 60 |
| Cn1c(=O)n(C2CCC(=O)NC2=O)c2cccc(NCCN3CC4CN(C(=O)c5ccc(-n6cc(NC(=O)c7cccc(-c8ccn[nH]8)n7)c(S(N)(=O)=O)n6)cc5)CC4C3)c21 (stereo not shown) [Compound A339] | < 100 | > 60 |
| Cn1c(=O)n(C2CCC(=O)NC2=O)c2cccc(C#CCOC3CCN(Cc4ccc(-n5cc(NC(=O)c6cccc(-c7ccn[nH]7)n6)c(S(N)(=O)=O)n5)cc4)CC3)c21 (stereo not shown) [Compound A340, N-(1-(4-((4-((3-(1-(2,6-Dioxopiperidin-3-yl)-3-methyl-2-oxo-2,3-dihydro-1H-benzo[d]imidazol-4-yl)prop-2-yn-1-yl)oxy)piperidin-1-yl)methyl)phenyl)-3-sulfamoyl-1H-pyrazol-4-yl)-6-(1H-pyrazol-5-yl)picolinamide] | < 100 | > 60 |
| Cn1c(=O)n(C2CCC(=O)NC2=O)c2cccc(N3CCC4(CCN(CCNC(=O)c5ccc(-n6cc(NC(=O)c7cccc(-c8ccn[nH]8)n7)c(S(N)(=O)=O)n6)cc5)C4)C3)c21 (stereo not shown) [Compound A341, N-(1-(4-((2-(7-(1-(2,6-Dioxopiperidin-3-yl)-3-methyl-2-oxo-2,3-dihydro-1H-benzo[d]imidazol-4-yl)-2,7-diazaspiro[4.4]nonan-2-yl)ethyl)carbamoyl)phenyl)-3-sulfamoyl-1H-pyrazol-4-yl)-6-(1H-pyrazol-5-yl)picolinamide formate] | < 100 | > 60 |
| Cn1c(=O)n(C2CCC(=O)NC2=O)c2cccc(NCCN3CC4(C3)CN(C(=O)c3ccc(-n5cc(NC(=O)c6cccc(-c7ccn[nH]7)n6)c(S(N)(=O)=O)n5)cc3)C4)c21 (stereo not shown) [Compound A343] | < 100 | > 60 |
| Cn1c(=O)n(C2CCC(=O)NC2=O)c2cccc(C#CCOC3CN(C(=O)c4ccc(-n5cc(NC(=O)c6cccc(-c7ccn[nH]7)n6)c(S(N)(=O)=O)n5)cc4)C3)c21 (stereo not shown) [Compound A348] | < 100 | > 60 |
